{
  "source": "patent US20060019958A1",
  "about": "“Immunity-related protein kinase inhibitors” (priority 2002, published 2006)",
  "key": {"[1]": {"system": "IκBα phosphorylation in HepG2 cells", "experiment": "Detection of phosphorylated IκBα by Western blot method under TNFα stimulation", "format": "cell-based", "details": "40 ng/ml human TNFα, 20 μM MG-132", "method": "Detection of Phosphorylated IκBα by Western Blot Method\n[…] After 45 minutes, 40 ng/ml of human TNFα was further added. Ten minutes after the addition of the TNFα, the cells were collected, and a cell lysate was prepared by using a tip-type ultrasonic processor (Dr.Hielsher; UP-50H). After the measurement of a protein concentration using a BCA protein assay kit by Pierce (BSA standard), 30 μg of the cell lysate was applied to each lane of 12% SDS slab gel (mini gel) and an electrophoresis was carried out. After the electrophoresis, a detection of phorphorylated IκBα by Western blot method was carried out using anti-phosphorylated IκBα (Ser32) antibody (Cell Signaling) as a primary antibody and […] as a secondary antibody."}, "[2]": {"system": "NF-κB activation by forced expression of MEKK-1 in HeLa cells", "experiment": "Inhibition of NF-κB activation by forced expression of MEKK-1 (luciferase reporter assay)", "format": "cell-based, human", "details": "MEKK-1 forced expression, 24 hours", "from_the_text": "Measurement of Inhibition of NF-κB Activation by Forced Expression of MEKK-1\nUsing a transfection reagent(Effectene; QIAGEN), human uterine cancer cell strain HeLa was cotransfected with a plasumid (pNF κB-Luc Reporter Plasmid: STRATAGENE) integrated with an oligonucleotide having five tandem copies of NF-κB binding sequences(TGGGGACTTTCCGC) on an upstream region of the firefly luciferase gene(Luc) and the MEKK-1 gene-contained expression vector(pFC-MEKK: STRATAGENE) according to the QIAGEN's protocol, and the cells were incubated for 24 hours. After incubation in the presence or absence of a test compound for 24 hours, intracellular luciferase activity was measured by using PicaGene LT(TOYO INK MFG Co., Ltd.) and a chemical luminescence measurement apparatus(SPECTRAFluor Plus; TECAN). The inhibitory ratio was measured as a ratio relative to the value of the luciferase activity in the absence of the test compound."}},
  "data": [
    {"compound": "CC(=O)Oc1ccccc1C(=O)Nc1cc(Cl)cc(Cl)c1", "note": "[compound 172, 2-acetoxy-N-(3,5-dichlorophenyl)benzamide]", "values": [
      {"measurement": "melting point", "value": "218 to 219", "unit": "°C"}
    ]},
    {"compound": "CC(C)(C)c1ccc(O)c(C(=O)Nc2cc(C(F)(F)F)cc(C(F)(F)F)c2)c1", "note": "[Compound No. 56, N-[3,5-Bis(trifluoromethyl)phenyl]-5-[(1,1-dimethyl)ethyl]-2-hydroxybenzamide]", "values": [
      {"measurement": "Inhibition Ratio of I κ B phosphorylation(%)", "setting": "[1]; Drug Concentration 2 μg/ml", "value": 31.3, "unit": "%"}
    ]},
    {"compound": "O=C(Nc1cc(C(F)(F)F)cc(C(F)(F)F)c1)c1cc(Cl)ccc1O", "note": "[Compound No. 50, N-[3,5-Bis(trifluoromethyl)phenyl]-5-chloro-2-hydroxybenzamide]", "values": [
      {"measurement": "Inhibitory Ratio of NF-κB Activation(%)", "setting": "[2]; Drug Concentration 1 μg/ml", "value": 92.6, "unit": "%"},
      {"measurement": "Inhibitory Ratio of NF-κB Activation(%)", "setting": "[2]; Drug Concentration 10 μg/ml", "value": 93.2, "unit": "%"},
      {"measurement": "Inhibition Ratio of I κ B phosphorylation(%)", "setting": "[1]; Drug Concentration 2 μg/ml", "value": 43.0, "unit": "%"}
    ]},
    {"compound": "O=C(Nc1cc(C(F)(F)F)cc(C(F)(F)F)c1)c1cc(-c2ccccc2)ccc1O", "note": "[Compound No. 67]", "values": [
      {"measurement": "Inhibition Ratio of I κ B phosphorylation(%)", "setting": "[1]; Drug Concentration 2 μg/ml", "value": 43.8, "unit": "%"}
    ]},
    {"compound": "CC(C)(C)c1nc(NC(=O)c2cc(Br)ccc2O)sc1N1CCOCC1", "note": "[compound 199, 5-Bromo-N-{4-[(1,1-dimethyl)ethyl]-5-morpholinothiazol-2-yl}-2-hydroxybenzamide]", "values": [
      {"measurement": "Inhibition Ratio of I κ B phosphorylation(%)", "setting": "[1]; Drug Concentration 2 μg/ml", "value": 47.9, "unit": "%"}
    ]},
    {"compound": "O=C(Nc1cc(C(F)(F)F)cc(C(F)(F)F)c1)c1cc(-n2cccc2)ccc1O", "note": "[Compound No. 71]", "values": [
      {"measurement": "Inhibition Ratio of I κ B phosphorylation(%)", "setting": "[1]; Drug Concentration 2 μg/ml", "value": 29.5, "unit": "%"}
    ]},
    {"compound": "CC(C)(C)C(=O)c1sc(NC(=O)c2cc(Cl)ccc2O)nc1C(C)(C)C", "note": "[compound 195, 5-Chloro-N-{4-[(1,1-dimethyl)ethyl]-5-[(2,2-dimethyl)propionyl]thiazol-2-yl}-2-hydroxybenzamide]", "values": [
      {"measurement": "Inhibition Ratio of I κ B phosphorylation(%)", "setting": "[1]; Drug Concentration 2 μg/ml", "value": 63.5, "unit": "%"}
    ]},
    {"compound": "CC(C)(C)c1nc(NC(=O)c2cc(Br)ccc2O)sc1N1CCN(c2ccccc2)CC1", "note": "[compound 201, 5-Bromo-N-{4-[(1,1-dimethyl)ethyl]-5-(4-phenylpiperazin-1-yl)thiazol-2-yl}-2-hydroxybenzamide]", "values": [
      {"measurement": "Inhibition Ratio of I κ B phosphorylation(%)", "setting": "[1]; Drug Concentration 2 μg/ml", "value": 57.4, "unit": "%"}
    ]},
    {"compound": "COc1cc(/C=C/C(=O)CC(=O)/C=C/c2ccc(O)c(OC)c2)ccc1O", "note": "[curcumin]", "values": [
      {"measurement": "Inhibition Ratio of I κ B phosphorylation(%)", "setting": "[1]; Drug Concentration 100 μM", "value": 51.6, "unit": "%"}
    ]}
  ]
}
